Laboratory results taken from patent US5212167A, “Modulation of receptor-mediated ion transport” (Trustees of Boston University, priority 1991, dated 1993).
Counter-ions that a name gives are not always drawn.

How the values were obtained:
NMDA receptor = experiment: Whole-cell patch clamp, NMDA-induced currents in cultured chick spinal cord neurons; settings: for enhancement of the NMDA response (percent change): 100 μM pregnenolone sulfate
Procedure: (§1) Cultures of dissociated spinal cord neurons were prepared from 7-day chick embryos as described by Wu et al. (Mol. Pharmacol. 37:597-602 (1990)). Briefly, dissociated cells were plated on collagen-coated 35-mm tissue culture dishes in Eagle's minimum essential medium supplemented with 2.4 mM glutamine, 10% (v/v) heat-inactivated horse serum, 5% (v/v) chick embryo extract, 100 units/ml penicillin, and 100 μg/ml streptomycin. Cultures were maintained in a humidified atmosphere of 5% CO2 /95% air at 37° C. Cytosine arabinoside (1 μM) was added after 36 hours to control the proliferation of non-neuronal cells. This medium was removed one day later and replaced with a similar medium supplemented with 20.5 mM glucose and 18 mM KCl, and containing 2.5% chick embryo extract. Fresh medium was added twice weekly. Cultured neurons were used in experiments 2-4 weeks after plating.
(§2) Electrophysiological experiments were carried out in 35-mm tissue culture dishes on the stage of an inverted phase-contrast microscope. Whole-cell currents were recorded by the whole-cell variant of the patch clamp technique described by Hamill et al. (Pflugers Arch. 391:85-100 (1981)). Patch electrodes were fabricated with a double pull from thin-wall borosilicate glass microcapillary pipets (Fischer) on a David Kopf vertical pipet puller (Model 700D). Electrode resistance was 5.2±0.12 M.OMEGA. (n=65) when filled with intracellular solution. The electrode solution usually contained (in mM): 10 KCl, 3 sodium gluconate, 140 potassium gluconate, 11 EGTA and 10 HEPES (pH adjusted to 7.2 with KOH). For GABA experiments, a high Cl-intracellular solution (in mM, 140 KCl, 3 NaCl, 1 MgCl2, 11 EGTA and 10 HEPES, pH adjusted to 7.2 with KOH) was used. The bath solution contained (in mM): 150 NaCl, 4 KCl, 1 CaCl2, 1 MgCl2 and 10 HEPES (pH adjusted to 7.2 with NaOH). Since NMDA-induced currents are subject to voltage-dependent block by extracellular Mg^2+, no magnesium salts were added to the bath solution. All experiments were performed at room temperature (23°-25° C.).
Recordings were made using a Yale MK V amplifier. After forming a tight seal (typically 1-10 G.OMEGA.) capacitative transients were minimized. The patch of membrane under the pipet tip was then ruptured by gentle suction to obtain the whole-cell configuration. Cells with series resistance greater than 10 M.OMEGA. were rejected. Series resistance, which initially measured 7.3± 0.14 M.OMEGA. (n=65), was compensated (>60%). Only cells with resting membrane potential more negative than -55 mV and input resistance in excess of 150 M.OMEGA. were used. All recordings were made with the cell membrane potential clamped at -70 mV. Currents were filtered at 1 kHz using an 8-pole Bessel filter and digitized (40 ms/point) using an on-line data acquisition system (pClamp, Axon Instruments).
Drug solutions were applied to single neurons by pressure ejection (15 psi) from 7-barrel pipets (Choi et al., J. Neurophysiol 45:605-620 (1981) and Chan, C. Y. and D. H. Farb, J. Neurosci. 5:2365-2373 (1985)). Pipets were pulled from Omega dot tubing to a tip diameter of about 1 μm per barrel and broken back to about 3-5 μm per barrel after filling. Seven-barrel pressure pipets were positioned approximately 50μm from the neuronal soma. Under these conditions, the drug solution in the pressure pipet rapidly and effectively replaces the solution surrounding the target neuron, with less than 10% dilution (Choi and Fischbach, J. Neurophysiol. 45:605-620 (1981)).
All drugs were obtained from Sigma, with the exception of AMPA hydrobromide (Research Biochemicals) and pregnenolone sodium sulfate (Steraloids). Stock solutions of steroids were prepared in dimethyl sulfoxide (final concentration, 0.5%, v/v).

GABA receptor = experiment: Whole-cell patch clamp, GABA-induced currents in cultured chick spinal cord neurons; type: cell-based
Procedure: as §1
Electrophysiological experiments were carried out in 35-mm tissue culture dishes on the stage of an inverted phase-contrast microscope. Whole-cell currents were recorded by the whole-cell variant of the patch clamp technique described by Hamill et al. (Pflugers Arch. 391:85-100 (1981)). […]
(§3) Recordings were made using a Yale MK V amplifier. […] Series resistance, which initially measured 7.3± 0.14 M.OMEGA. […]

glycine receptor = experiment: Whole-cell patch clamp, glycine-induced currents in cultured chick spinal cord neurons; type: cell-based; settings: for inhibition of the glycine response: 50 μM glycine, n=6
Procedure: as §1
as §2, with “All experiments were performed at room temperature (23°-25° C.).” left out
as §3

[1] = tested on: non-NMDA glutamate receptor; experiment: Whole-cell patch clamp, kainate- or AMPA-induced currents in cultured chick spinal cord neurons; type: cell-based
Procedure: as §1
as §2, with “All experiments were performed at room temperature (23°-25° C.).” left out
as §3

## CC(=O)C1CCC2C3CC=C4CC(OS(=O)(=O)O)CCC4(C)C3CCC12C (centres unmarked) [pregnenolone sulfate]
NMDA receptor; 10 μM glycine present
  potentiation of the NMDA response in the presence of maximal glycine versus without added glycine: did not differ significantly
NMDA receptor; 30 μM NMDA, 100 μM steroid, -70 mV
  increase of response to NMDA: approximately threefold
NMDA receptor; 100 μM NMDA, n=4, mean ±SEM
  enhancement of the NMDA response (percent change): 86±7.5%
NMDA receptor; 1 mM NMDA, n=2, mean ±SEM
  enhancement of the NMDA response (percent change): 1.3±1.3%
NMDA receptor; appropriate concentration (summary statement)
  increase in the ionic current across the cellular membrane: 3 fold
NMDA receptor; read-out: EC50 for enhancement of the NMDA response, FIG. 2 dose response
  EC50: 57 µM
GABA receptor; FIG. 2 dose response, read-out: EC50 for inhibition of the GABA response
  EC50: 7 µM
GABA receptor; summary statement
  effect on GABA receptor-mediated ion channel activity (in words): slight decrease
Glycine receptor; 5 μM pregnenolone sulfate
  inhibition of the glycine response: 61±2%
Glycine receptor; 100 μM pregnenolone sulfate
  inhibition of the glycine response: 91±2%
Glycine receptor; summary statement
  effect on glycine receptor-mediated ion channel activity (in words): slight decrease
[1]; AMPA-induced current
  effect on response elicited by AMPA: slightly inhibited
[1]; kainate-induced current
  effect on response elicited by kainate: slightly inhibited
[1]; summary statement
  effect on non-NMDA glutamate-induced activity (in words): inhibited

## NCC(=O)O [glycine, reference compound]
NMDA receptor; 10 μM glycine, 100 μM pregnenolone sulfate present
  potentiation of the NMDA response by glycine in the presence of pregnenolone sulfate: still evident

## C[C@]12CCC(=O)C=C1CC[C@@H]1[C@@H]2[C@@H](O)C[C@@]2(C)[C@H]1CC[C@]2(O)C(=O)CO [Hydrocortisone, reference compound]
NMDA receptor; 100 μM steroid
  enhancement of NMDA-induced current (in words): failed to enhance
NMDA receptor; 100 μM steroid, n=6, mean ±SEM
  inhibition of the NMDA response: 15±2.4%
